Read-outs that look alike come from different tables or passages of the source.
Key:
[1] = molecular target: T1, BRD4 (BD1) (Homo sapiens, UniProt O60885); assay: BRD4 AlphaLisa binding assay
T1 construct: His; made in house
Protocol: A. IC50 Measurements for Inhibitors Using BRD4 AlphaLisa Binding Assay.
Specifically, in a 384 well ProxiPlate BRD4 (BD1) (30 nM final) was combined with peptide (200 nM final) in 40 mM HEPES (pH 7.0), 40 mM NaCl, 1 mM DTT, 0.01% (w/v) BSA, and 0.008% (w/v) Brij-35 either in the presence of DMSO (final 1.2% DMSO) or compound dilution series in DMSO. After 20 minute incubation at room temperature Alpha streptavidin donor beads and AlphaLisa anti-Flag acceptor beads were added to a final concentration of 10 ug/mL each. After three hours equilibration plates were read on an Envision instrument and IC50s calculated using a four parameter non-linear curve fit.

[2] = test system: IL-6 secretion in THP-1 cells; assay: Cell-based IL-6 quantification assay (ELISA, Mesoscale) in LPS-treated THP-1 cells; details: Homo sapiens, LPS 4 μg/mL, 16 h, ELISA value/CellTiter-Glo ratio
Protocol: C. Cell-Based IL-6 Quantification Assay (ELISA, Mesoscale Assay):
100,000 THP-1 cells were seeded in RPMI1640-10% FBS in 96-well plates. LPS (E. Coli Invitrogen) in RPMI−10% FBS at a final concentration of 4 μg/mL was added to the wells and the cells are then incubated in the presence of various concentrations of compounds for 16 h. Plates are spun ([…], 5 min), an aliquot of 25 uL supernatant is transferred in to an ELISA plate (Mesoscale technology, MSD) and the detection of IL-6 is performed using manufacturer's instructions. The amount of cells in each well is assessed using CellTiter-Glo® (Promega). The ratio of ELISA value/CellTiter-Glo value is used to calculate the percent of inhibition of IL-6 secretion.

[3] = BRD4 (BD1) 30 nM, biotinylated H4-tetraacetyl peptide 200 nM, read-out: BRD4 AlphaLisa

Compound | IC50 [1, 3] [nM] | IC50 [2] [nM] | IC50 [1] [nM]
CCNC(=O)CC1CN(c2ccc(Cl)cc2)c2ccccc2-n2c(C)nnc21 (stereo not drawn) [Compound 10, 2-(6-(4-chlorophenyl)-1-methyl-5,6-dihydro-4H-benzo[b][1,2,4]triazolo[4,3-d][1,4]diazepin-4-yl)-N-ethylacetamide] | 1000 to 10000 | 1000 to 10000 | –
CCC1CN(c2ccc(Cl)cc2)c2ccccc2-n2c(C)nnc21 (stereo not drawn) [Compound 32] | – | – | 1000 to 10000
Cc1nnc2n1-c1ccccc1N(c1ccc(Cl)cc1)CC21CC1CO (stereo not drawn) [Compound 11, (6-(4-chlorophenyl)-1-methyl-5,6-dihydrospiro[benzo[b][1,2,4]triazolo[4,3-d][1,4]diazepine-4,1′-cyclopropan]-2′-yl)methanol] | 1000 to 10000 | 1000 to 10000 | –
Cc1nnc2n1-c1ccc(-c3ccccc3)cc1N(C)CC2 [Compound 4, 1,6-dimethyl-8-phenyl-5,6-dihydro-4H-benzo[b][1,2,4]triazolo[4,3-d][1,4]diazepine] | > 10000 | > 10000 | –
Cc1nnc2n1-c1ccc(-c3ccccc3)cc1NCC2 [Compound 7, 1-methyl-8-phenyl-5,6-dihydro-4H-benzo[b][1,2,4]triazolo[4,3-d][1,4]diazepine] | > 10000 | > 1000 | –
Cc1nnc2n1-c1ccccc1N(c1ccc(Cl)cn1)CC2 [Compound 8, 6-(5-chloropyridin-2-yl)-1-methyl-5,6-dihydro-4H-benzo[b][1,2,4]triazolo[4,3-d][1,4]diazepine] | 1000 to 10000 | 1000 to 10000 | –

The next lines start with results.

IC50 [1, 3] [nM] | IC50 [2] [nM] | Compound | IC50 [1] [nM]
100 to 1000 | – | Cc1nnc2n1-c1cc(F)ccc1N(c1ccc(Cl)cc1)CC2C (stereo not drawn) [Compound 35, 4H-[1,2,4]triazolo[4,3-a][1,5]benzodiazepine,5,6-dihydro-1,4-dimethyl-9-fluoro-6-(4-chloro-phenyl)] | –
100 to 1000 | > 1000 | Cc1nnc2n1-c1ccc(-c3cnn(C)c3)cc1N(c1ccc(C#N)cc1)C[C@@H]2C [Compound 45, (S)-4H-[1,2,4]triazolo[4,3-a][1,5]benzodiazepine,5,6-dihydro-1,4-dimethyl-8-(1-methyl-1H-pyrazol-4-yl)-6-(4-cyano-phenyl)] | –
100 to 1000 | > 1000 | Cc1nnc2n1-c1ccc(-c3cnn(C)n3)cc1N(c1ccc(C#N)cc1)C[C@@H]2C [Compound 74, (R)-4H-[1,2,4]Triazolo[4,3-a][1,5]benzodiazepine, 5,6-dihydro-1,4-dimethyl-8-(2-methyl-2H-1,2,3-triazole-4-yl)-6-(4-cyano-phenyl)] | –
100 to 1000 | – | Cc1nnc2n1-c1ccc(C#CC(C)(C)N)cc1N(c1ccc(Cl)cc1)CC2C (stereo not drawn) [Compound 31, 4H-[1,2,4]triazolo[4,3-a][1,5]benzodiazepine,5,6-dihydro-1,4-dimethyl-8-(3-amino-3-methylbut-1-ynyll)-6-(4-chloro-phenyl)] | –
100 to 1000 | – | Cc1nnc2n1-c1ccccc1N(c1ccc(Cl)cc1)CC21CC1 [Compound 34, 6-(4-chlorophenyl)-1-methyl-5,6-dihydrospiro[benzo[b][1,2,4]triazolo[4,3-d][1,4]diazepine-4,1′-cyclopropane]] | –
100 to 1000 | – | Cc1nnc2n1-c1ccc(Br)cc1N(c1ccc(Cl)cc1)CC21CC1 [Compound 33, 8-bromo-6-(4-chlorophenyl)-1-methyl-5,6-dihydrospiro[benzo[b][1,2,4]triazolo[4,3-d][1,4]diazepine-4,1′-cyclopropane]] | –
< 100 | – | Cc1nnc2n1-c1ccc(-c3cnn(C)c3)cc1N(c1ccc(Cl)cc1)CC2 [Compound 30, 4H-[1,2,4]triazolo[4,3-a][1,5]benzodiazepine,5,6-dihydro-1methyl-8-(1-methyl-1H-pyrazol-4-yl)-6-(4-chloro-phenyl)] | –
100 to 1000 | – | Cc1nnc2n1-c1ccc(C#CC(C)(C)O)cc1N(c1ccc(Cl)cc1)CC2C (stereo not drawn) [Compound 36, 4H-[1,2,4]triazolo[4,3-a][1,5]benzodiazepine,5,6-dihydro-1,4-dimethyl-8-(3-hydroxy-3-methylbut-1-ynyl)-6-(4-chloro-phenyl)] | –

— patent US9422292B2, “Bromodomain inhibitors and uses thereof” (Constellation Pharmaceuticals, Inc., priority 2011, dated 2016)
